Results: patent US20060258750A1, “Use of bicyclo[2.2.1]heptane derivatives for the preparation of neuroprotective pharmaceutical compositions” (priority 2003, published 2006)
Entries after “also recorded” stand apart in the source; their conditions may differ. Marks after values point to notes of the source that are not given here.

Legend:
[1] = single 0.7 mg/kg oral treatment; cited from earlier work
[2] = system: hippocampal CA1 pyramidal cell death; assay: Global cerebral ischemia by 3 min bilateral carotid artery occlusion (BCO): hippocampal CA1 neuronal damage score; assay type: in vivo, Mongolian gerbils
Description: (§1) In our experiments male Mongolian gerbils weighing 50-80 g were used. Deramciclane was administered at 3×30 mg/kg intraperitoneally 60 min before, 30 and 90 min after surgery. Deramciclane was suspended in 0.4% methyl-cellulose solution. In ether narcosis, the right and left common carotid arteries were exposed through an anterior midline cervical incision and isolated from the vagus nerves and the surrounding tissues. Full arrest of carotid blood flow was achieved by tightening an aneurysm clip for 3 min. During surgery the body temperature of the animals was kept at the individual preoperative level (37.5±0.5° C.) with the help of a heating pad and a heating lamp.
After behavioural testing the animals were anesthetized with 60 mg/kg i.p. pentobarbital (10 ml/kg) and perfused through the heart first with saline then with a fixative solution containing 0.1% glutaraldehyde, 4% paraformaldehyde, and 0.2% picric acid in 0.1 M phosphate buffer pH 7.4 for 30 min. The brain was removed from the skull and post-fixed for at least 1 week at 4° C. in the same fixative solution.
Alternate coronal sections of 60 μm thickness were cut from different levels of the dorsal hippocampus by a microtone. The sections were repeatedly washed in 0.1 M phosphate buffer then stained by silver impregnation.
The sections were examined under light microscopy and the overall neuronal damage in the hippocampal CA1 subfield in both hippocampi was scored on a 6-point scale: (0) undamaged, (1)<10%, (2) 10-30%, (3) 30-50%, (4) 50-70%, (5) 70-90%, and (6) 90-100% cell loss. Group differences between drug-treated and vehicle-treated groups were statistically analysed by Mann-Whitney U-test.

[3] = 1 and 10 mg/kg ip.; cited from earlier work
[4] = single oral dose of 3 mg/kg; cited from earlier work
[5] = cited from earlier work
Mongolian gerbils = assay: Global cerebral ischemia (BCO): locomotor activity in symmetrical Y-maze four days after surgery; assay type: in vivo
Description: as §1
The Mongolian gerbils were placed in the centre of the maze then the number of entries into the three arms was recorded for 5 min. By definition, the animal performed an arm entry when it entered the arm and proceeded at least the distance of its body length. The gerbil was considered to exit the arm when it left it fully. Differences between groups were statistically evaluated by Kruskal-Wallis ANOVA. In case of p<0.05 significance Mann-Whitney U-test was used for paired comparisons.

central 5-HT2A receptors = central 5-HT2A receptors (Homo sapiens, UniProt P28223); conditions: cited from earlier work
central 5-HT2A receptors, sequence (P28223 whole entry): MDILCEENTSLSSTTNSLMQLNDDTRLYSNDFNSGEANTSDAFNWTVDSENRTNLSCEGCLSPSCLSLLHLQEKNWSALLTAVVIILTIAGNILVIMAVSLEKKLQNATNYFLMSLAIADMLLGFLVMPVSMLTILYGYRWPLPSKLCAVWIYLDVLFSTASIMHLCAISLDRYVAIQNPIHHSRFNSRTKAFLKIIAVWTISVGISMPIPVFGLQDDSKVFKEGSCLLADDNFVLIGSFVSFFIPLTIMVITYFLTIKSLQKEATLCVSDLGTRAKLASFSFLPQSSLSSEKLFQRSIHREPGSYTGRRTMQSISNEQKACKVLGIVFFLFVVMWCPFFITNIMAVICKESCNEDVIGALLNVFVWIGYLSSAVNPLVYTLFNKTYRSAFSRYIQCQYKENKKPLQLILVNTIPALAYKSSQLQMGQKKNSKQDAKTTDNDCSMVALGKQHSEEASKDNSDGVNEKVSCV

[6] = 10 and 30 mg/kg after oral treatment; cited from earlier work
[7] = 1 and 10 mg/kg after oral administration; cited from earlier work
central 5-HT2C receptors = central 5-HT2C receptors (Homo sapiens, UniProt P28335); conditions: cited from earlier work
central 5-HT2C receptors, sequence (P28335 33-458): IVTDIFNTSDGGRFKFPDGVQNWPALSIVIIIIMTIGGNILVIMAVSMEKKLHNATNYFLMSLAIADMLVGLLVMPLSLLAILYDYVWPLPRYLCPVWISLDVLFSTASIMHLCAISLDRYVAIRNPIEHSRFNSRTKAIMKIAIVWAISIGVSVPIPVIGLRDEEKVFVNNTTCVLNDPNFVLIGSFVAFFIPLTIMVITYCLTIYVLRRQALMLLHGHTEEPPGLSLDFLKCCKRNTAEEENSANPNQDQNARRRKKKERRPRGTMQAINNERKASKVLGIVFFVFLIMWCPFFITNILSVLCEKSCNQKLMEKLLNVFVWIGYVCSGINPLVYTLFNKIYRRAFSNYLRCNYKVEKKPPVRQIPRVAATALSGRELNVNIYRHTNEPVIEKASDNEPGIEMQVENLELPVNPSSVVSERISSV

[8] = system: brain damage after transient global cerebral ischaemia; conditions: global cerebral ischaemia in gerbils; cited from earlier work
[9] = 3 × 30 mg/kg i.p., compared to the BCO group
[10] = in the applied dose (3 × 30 mg/kg i.p.)

Compound | time spent with social interactions [1] | CA1 cell death (score) ([2]; 3 × 30 mg/kg i.p. (60 min before, 30 and 90 min after surgery), 6-point scale 0-6, BCO control 4.90) | Effect % (CA1 cell death) [2, 9] | proportion of cell death in the hippocampal CA1 region (in words) [2, 10] | antidepressant activity in learned helplessness test [3] | activity in light-dark test [4] | anxiety caused by CCK in elevated plus maze test ([5]; CCK-induced anxiety) | activity in elevated plus maze test ([5]; in vivo) | Number of arm entries (Mongolian gerbils; 3 × 30 mg/kg i.p., Y-maze, 5 min, four days after surgery, sham 40.25, BCO 65.44) | Effect % (number of arm entries) (Mongolian gerbils; [9]) | locomotor activity of animals (in words) (Mongolian gerbils; [10]) | binding to central 5-HT2A receptors (in words) (central 5-HT2A receptors) | activity in marble burying test [6] | activity in Vogel punished drinking test [7] | binding to central 5-HT2C receptors (in words) (central 5-HT2C receptors) | neuroprotective activity [8]
CN(C)CCO[C@]1(c2ccccc2)C[C@H]2CC[C@]1(C)C2(C)C [deramciclane, (1R,2S,4R)-(−)-2-(2-dimethylaminoethoxy)-2-phenyl-1,7,7-trimethyl-bicyclo[2.2.1]heptane] | increased | 0.89** score | −82% | significantly reduced | produced antidepressant activity | active | antagonized | ineffective | 38.78** | −100% | decreased the locomotor activity of animals into the normal range | binds primarily | active | active | binds primarily | –
Cc1nc2sccn2c(=O)c1CCN1CCC(=C(c2ccc(F)cc2)c2ccc(F)cc2)CC1 [ritanserin] | – | – | – | – | – | – | – | – | – | – | – | – | – | – | – | did not show neuroprotective activity; also recorded: did not produce neuroprotective effect
